Test systems include HL-60; TK-10; NCI/ADR-RES; MOLT-4; HCT-15; 786-0; NCI-H460; KM12; LOX IMVI; SNB-19; SF-295; HOP-92; M14; SK-MEL-5; Malme-3M; CCRF-CEM; SNB-75; SF-539; HCC 2998.
Common to all, as to experiment: NCI-60 cell line screen, 48 h

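Values below derive from 48-hour exposures of cells grown in 96-well plates, with endpoints linearly interpolated between the two concentrations bracketing the appropriate inhibition level. At the GI50, growth is halved.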 Active and inactive are the calls of the source. No stated cut-off is given here; in the data, active = GI50 up to about 1.1 µM and inactive = higher. A value given as a limit tells only on which side of the number the result lay.

For the compound `COc1ccc(CC(O)CN2CCOCC2)cc1` (configuration not stated), the GI50 is > 100 µM (inactive) in the experiment on HL-60; > 100 µM (inactive) with TK-10; > 100 µM (inactive) with NCI/ADR-RES; > 100 µM (inactive) in the experiment with MOLT-4; above 100 µM in the experiment on HCT-15; > 100 µM (inactive) in the experiment on 786-0. Moreover, the GI50 in the experiment with NCI-H460, in the experiment with KM12, with LOX IMVI, with SNB-19, in the experiment with SF-295 and in the experiment on HOP-92 was > 100 µM (inactive) throughout. The GI50 in the experiment with M14, in the experiment with SK-MEL-5, in the experiment on Malme-3M and in the experiment on CCRF-CEM was > 100 µM (inactive) in each case.

Consider `O=c1c(C(c2ccc([N+](=O)[O-])cc2)c2c(O)oc3ccccc3c2=O)c(O)oc2ccccc12`, for which the GI50 is 86.5 µM (inactive) with SNB-75; > 100 µM (inactive) in the experiment on HL-60; > 100 µM (inactive) in the experiment with TK-10; > 100 µM (inactive) with NCI/ADR-RES; > 100 µM (inactive) in the experiment on MOLT-4; above 100 µM in the experiment on HCT-15. The GI50 in the experiment with 786-0, in the experiment on NCI-H460, in the experiment with KM12, in the experiment on LOX IMVI, with SNB-19 and in the experiment on HOP-92 was > 100 µM (inactive) each time. Besides, the GI50 in the experiment on SK-MEL-5, in the experiment with Malme-3M and in the experiment on CCRF-CEM was > 100 µM (inactive) each time.

Turning to `COc1ccc2c(c1)[n+]([O-])c(/C(C)=N/NC(=O)CC#N)c[n+]2[O-]`, the GI50 was > 100 µM (inactive) in the experiment on SNB-75; 21.1 µM (inactive) with HL-60; > 100 µM (inactive) in the experiment with TK-10; > 100 µM (inactive) in the experiment with MOLT-4; above 100 µM in the experiment on HCT-15; > 100 µM (inactive) with 786-0. For the same compound, the GI50 in the experiment on SF-539, in the experiment on NCI-H460, in the experiment with KM12, with HCC 2998, in the experiment on LOX IMVI and with SNB-19 was > 100 µM (inactive) in each case. Further, the GI50 in the experiment with SF-295, in the experiment with HOP-92, in the experiment with M14, in the experiment with SK-MEL-5, with Malme-3M and in the experiment on CCRF-CEM was > 100 µM (inactive) each time.

For `CC1(C(=O)O)CCCC1C(=O)O` (configuration not stated), the GI50 with HL-60 was > 100 µM (inactive); in the experiment with TK-10, > 100 µM (inactive); in the experiment on NCI/ADR-RES it was > 100 µM (inactive); in the experiment on MOLT-4 it was > 100 µM (inactive); in the experiment with HCT-15 it was above 100 µM; in the experiment on 786-0, > 100 µM (inactive). For the same compound, the GI50 in the experiment on NCI-H460, in the experiment on KM12, with LOX IMVI, in the experiment on SNB-19, in the experiment with SF-295 and in the experiment with HOP-92 was > 100 µM (inactive) throughout. The GI50 in the experiment with M14, in the experiment with SK-MEL-5, in the experiment on Malme-3M and in the experiment with CCRF-CEM was > 100 µM (inactive) each time.

As for `COC(=O)C1=C(c2cc(OC)c(OC)c(OC)c2)OC(c2ccc(OC)c(OC)c2)C1` (configuration not stated), the GI50 with SNB-75 is 66.1 µM (inactive); in the experiment on HL-60, 27.4 µM (inactive); with TK-10, 54.3 µM (inactive); in the experiment on MOLT-4, 18.9 µM (inactive); in the experiment on HCT-15, 43.5 µM; in the experiment with 786-0, 73.3 µM (inactive). The GI50 is 42.9 µM (inactive) in the experiment with SF-539; 39.5 µM (inactive) in the experiment with NCI-H460; 29.2 µM (inactive) in the experiment with KM12; 54.7 µM (inactive) in the experiment with HCC 2998; 29.3 µM (inactive) with LOX IMVI; 35.6 µM (inactive) in the experiment with SF-295. Besides, the GI50 is 42.5 µM (inactive) in the experiment on HOP-92; 61.1 µM (inactive) in the experiment with M14; 29.7 µM (inactive) in the experiment with SK-MEL-5; > 100 µM (inactive) with Malme-3M; 60.1 µM (inactive) in the experiment on CCRF-CEM.

Turning to `CC(=O)Oc1cc2c(n(C)c1=O)-c1ccccc1C2`, the GI50 in the experiment on SNB-75 was > 100 µM (inactive); in the experiment with TK-10, 51.8 µM (inactive); with NCI/ADR-RES, 23.2 µM (inactive); in the experiment with MOLT-4, 66.8 µM (inactive); in the experiment with HCT-15 it was 28.1 µM; in the experiment on 786-0 it was > 100 µM (inactive). The GI50 with NCI-H460 was 43.8 µM (inactive); in the experiment on KM12, > 100 µM (inactive); in the experiment with HCC 2998, 85.9 µM (inactive); in the experiment with LOX IMVI it was 29.4 µM (inactive); in the experiment with SNB-19, > 100 µM (inactive); with SF-295 it was > 100 µM (inactive). Moreover, the GI50 with HOP-92 was 46.7 µM (inactive); with M14, 93.3 µM (inactive); in the experiment on SK-MEL-5, 85.3 µM (inactive); in the experiment on Malme-3M, 31.8 µM (inactive); in the experiment with CCRF-CEM, 34.2 µM (inactive).

`O=C1NCC2(CCN(CCCC3(c4ccc(F)cc4)OCCO3)CC2)N1c1ccccc1`: the GI50 is 66.5 µM (inactive) with SNB-75; > 100 µM (inactive) in the experiment on HL-60; > 100 µM (inactive) with TK-10; > 100 µM (inactive) with NCI/ADR-RES; > 100 µM (inactive) in the experiment on MOLT-4; above 100 µM with HCT-15. For the same compound, the GI50 with 786-0, with SF-539, in the experiment with NCI-H460, in the experiment with KM12, with HCC 2998 and with LOX IMVI was > 100 µM (inactive) each time. In addition, the GI50 in the experiment with SNB-19 was > 100 µM (inactive); in the experiment on SF-295 it was > 100 µM (inactive); with HOP-92, 36.7 µM (inactive); with M14, > 100 µM (inactive); with SK-MEL-5 it was > 100 µM (inactive); with Malme-3M, > 100 µM (inactive). In the experiment with CCRF-CEM, the GI50 is > 100 µM (inactive).

As to `COc1ccc2ccccc2c1CN1CCOCCOCCN(Cc2c(OC)ccc3ccccc23)CCOCCOCC1`, the GI50 is > 52.5 µM (inactive) with SNB-75; 32 µM (inactive) with HL-60; > 100 µM (inactive) in the experiment with TK-10; > 49.8 µM (inactive) with MOLT-4; above 91 µM in the experiment on HCT-15; 31.8 µM (inactive) in the experiment with 786-0. Moreover, the GI50 with SF-539 is > 45.3 µM (inactive); in the experiment with NCI-H460 it was 25.4 µM (inactive); in the experiment with KM12, > 41.7 µM (inactive); in the experiment with HCC 2998, 14.8 µM (inactive); in the experiment with LOX IMVI, > 68.5 µM (inactive); with SNB-19, > 100 µM (inactive). Further, the GI50 is > 100 µM (inactive) in the experiment with SF-295; > 27.9 µM (inactive) in the experiment on HOP-92; 17.1 µM (inactive) in the experiment with M14; > 38.9 µM (inactive) in the experiment with SK-MEL-5; > 45.9 µM (inactive) in the experiment on Malme-3M; > 39.1 µM (inactive) in the experiment with CCRF-CEM.

For the compound `Oc1ccc2ccccc2c1/N=N/c1ccsc1`, the GI50 is > 100 µM (inactive) in the experiment with SNB-75; 73.8 µM (inactive) in the experiment on HL-60; > 100 µM (inactive) with TK-10; > 100 µM (inactive) in the experiment with MOLT-4; 76.7 µM with HCT-15; > 100 µM (inactive) in the experiment on 786-0. Further, the GI50 is > 100 µM (inactive) in the experiment on SF-539; > 100 µM (inactive) with NCI-H460; 24.9 µM (inactive) in the experiment with KM12; > 100 µM (inactive) in the experiment with HCC 2998; > 100 µM (inactive) in the experiment on LOX IMVI; > 100 µM (inactive) in the experiment with SNB-19. The GI50 with SF-295 is > 100 µM (inactive); in the experiment on HOP-92 it was > 100 µM (inactive); in the experiment on M14, > 100 µM (inactive); in the experiment on SK-MEL-5 it was > 100 µM (inactive); in the experiment with Malme-3M, > 100 µM (inactive); with CCRF-CEM, 83.8 µM (inactive).

As for `CC1(C2CCC3(C)OC3C2)CO1` (configuration not stated), the GI50 in the experiment on SNB-75, in the experiment on HL-60, in the experiment with TK-10, in the experiment with MOLT-4, in the experiment on 786-0 and in the experiment with SF-539 was > 100 µM (inactive) each time. Moreover, the GI50 in the experiment with NCI-H460, in the experiment on KM12, with HCC 2998, with LOX IMVI, in the experiment on SNB-19 and with SF-295 was > 100 µM (inactive) throughout. Also, the GI50 with HOP-92, in the experiment with M14, in the experiment on SK-MEL-5, in the experiment with Malme-3M and in the experiment with CCRF-CEM was > 100 µM (inactive) throughout.

For the compound `COC(=O)c1nn(C(=N)c2ccc(Cl)cc2)c2c1CCCCC2`, the GI50 in the experiment with SNB-75 was > 100 µM (inactive); in the experiment with HL-60 it was > 100 µM (inactive); with TK-10 it was > 100 µM (inactive); with MOLT-4, > 100 µM (inactive); with HCT-15 it was above 100 µM; with 786-0 it was > 100 µM (inactive). Besides, the GI50 in the experiment on SF-539, in the experiment with NCI-H460, in the experiment with KM12, with HCC 2998, with LOX IMVI and in the experiment with SNB-19 was > 100 µM (inactive) in each case. Moreover, the GI50 with SF-295, in the experiment on HOP-92, with M14, with SK-MEL-5, with Malme-3M and with CCRF-CEM was > 100 µM (inactive) each time.

Consider `COC(=O)[C@H]1C=C[C@@H](C)n2c(=O)c3cc4ccccc4cc3c(=O)n21`, for which the GI50 in the experiment with SNB-75 is 43.6 µM (inactive); in the experiment with HL-60 it was > 100 µM (inactive); in the experiment with TK-10, > 100 µM (inactive); in the experiment with MOLT-4, > 100 µM (inactive); with HCT-15, above 100 µM; in the experiment with 786-0, > 100 µM (inactive). Further, the GI50 with SF-539, in the experiment on NCI-H460, in the experiment on KM12, with HCC 2998, in the experiment with LOX IMVI and with SNB-19 was > 100 µM (inactive) throughout. The GI50 in the experiment with SF-295, with HOP-92, with M14, in the experiment with SK-MEL-5, with Malme-3M and in the experiment on CCRF-CEM was > 100 µM (inactive) in each case.

These data come from ChEMBL document CHEMBL1201862, “PubChem BioAssay data set” (2004).
